Laboratory results taken from ChEMBL document CHEMBL1139080, “3-Mercaptopropionic acids as efficacious inhibitors of activated thrombin activatable fibrinolysis inhibitor (TAFIa)” (Bioorg Med Chem Lett, 2007).
pIC50: −log10 of the molar value.

How the values were obtained:
[1] = target: T1, Carboxypeptidase N catalytic chain (Homo sapiens, UniProt P15169); experiment: Inhibition of human carboxypeptidase N
T1 sequence (P15169 whole entry): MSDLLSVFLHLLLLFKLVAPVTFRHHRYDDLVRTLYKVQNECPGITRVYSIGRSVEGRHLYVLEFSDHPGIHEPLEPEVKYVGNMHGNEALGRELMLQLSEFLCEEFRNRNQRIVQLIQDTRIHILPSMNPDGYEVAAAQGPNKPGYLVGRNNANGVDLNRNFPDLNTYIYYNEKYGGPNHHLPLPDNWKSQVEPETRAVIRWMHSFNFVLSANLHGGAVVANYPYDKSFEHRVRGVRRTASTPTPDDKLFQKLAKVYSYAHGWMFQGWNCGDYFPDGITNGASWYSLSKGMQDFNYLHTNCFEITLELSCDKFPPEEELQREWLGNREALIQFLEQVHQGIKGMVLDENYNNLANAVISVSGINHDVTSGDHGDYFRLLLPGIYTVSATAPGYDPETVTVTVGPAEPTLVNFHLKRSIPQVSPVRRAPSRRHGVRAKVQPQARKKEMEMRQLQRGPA

Carboxypeptidase B2 = target: T2, Carboxypeptidase B2 (Homo sapiens, UniProt Q96IY4); experiment: Inhibition of human activated thrombin activatable fibrinolysis inhibitor
T2 sequence (Q96IY4 whole entry): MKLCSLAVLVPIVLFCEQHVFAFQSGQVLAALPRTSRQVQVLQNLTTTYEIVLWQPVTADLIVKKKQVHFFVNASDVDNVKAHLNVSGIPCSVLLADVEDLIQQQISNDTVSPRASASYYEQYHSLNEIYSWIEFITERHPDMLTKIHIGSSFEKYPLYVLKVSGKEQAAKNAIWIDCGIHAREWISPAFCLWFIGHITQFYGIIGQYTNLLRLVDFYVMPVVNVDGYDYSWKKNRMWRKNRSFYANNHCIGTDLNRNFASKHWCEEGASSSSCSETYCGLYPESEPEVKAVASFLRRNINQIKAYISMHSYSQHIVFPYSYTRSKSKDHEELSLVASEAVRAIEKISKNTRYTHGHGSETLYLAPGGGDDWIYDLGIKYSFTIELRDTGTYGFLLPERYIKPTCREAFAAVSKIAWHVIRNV

Carboxypeptidase B = target: T3, Carboxypeptidase B (Sus scrofa, UniProt P09955); experiment: Inhibition of porcine pancreatic carboxypeptidase B
T3 sequence (P09955 whole entry): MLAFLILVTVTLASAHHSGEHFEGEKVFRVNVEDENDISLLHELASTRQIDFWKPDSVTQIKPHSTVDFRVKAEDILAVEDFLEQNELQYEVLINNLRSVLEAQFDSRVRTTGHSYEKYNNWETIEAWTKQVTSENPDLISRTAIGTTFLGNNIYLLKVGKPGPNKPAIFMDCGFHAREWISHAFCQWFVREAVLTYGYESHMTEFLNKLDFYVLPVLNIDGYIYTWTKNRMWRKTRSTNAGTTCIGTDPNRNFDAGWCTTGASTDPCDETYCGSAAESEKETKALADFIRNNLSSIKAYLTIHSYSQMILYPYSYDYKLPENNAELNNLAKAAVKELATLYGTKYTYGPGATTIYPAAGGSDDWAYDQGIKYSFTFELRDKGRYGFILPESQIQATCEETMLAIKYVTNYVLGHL

Plasma = experiment: Inhibition of activated thrombin activatable fibrinolysis inhibitor in human plasma assessed as acceleration of clot lysis time; format: functional, cell-free

| pIC50 [1] | pIC50 (Carboxypeptidase B2) | pIC50 (Carboxypeptidase B) | Compound | Activity (Plasma) |
| --- | --- | --- | --- | --- |
| 8.70 | 8.10 | 8.00 | NC(N)=NCCCC(CS)C(=O)O (stereo not given) |  |
| 5.51 | 5.97 | 7.35 | N=C(N)N1CCC(C(CS)C(=O)O)CC1 (stereo not given) |  |
| 5.33 | 7.96 | 5.33 | N=C(N)Nc1ccc(Cl)c(C(CS)C(=O)O)c1 (stereo not given) |  |
| 6.45 | 6.11 | < 4.52 | Nc1cccc(C(CS)C(=O)O)c1 (stereo not given) |  |
| 6.00 | 6.04 | 6.07 | N=C(N)c1ccc(C(CS)C(=O)O)cc1 (stereo not given) |  |
| 8.52 | 8.40 | 6.86 | N=C(N)Nc1cccc(C(CS)C(=O)O)c1 (racemic) [listing 1 of 2 here] |  |
| 8.10 | 8.30 | 7.44 | N=C(N)Nc1cccc(C(CS)C(=O)O)c1 (single isomer, unassigned; (+)) |  |
| 7.42 | 7.35 | 7.42 | N=C(N)N1CCCC(C(CS)C(=O)O)C1 (stereo in doubt; 1b) |  |
| 7.24 | 6.78 | 8.52 | N=C(N)N1CCCC(C(CS)C(=O)O)C1 (stereo in doubt; 1d) |  |
| 5.76 | 8.52 | 5.76 | N=C(N)Nc1cccc(C(CS)C(=O)O)c1 (stereo in doubt; (-)2a) |  |

More lines, now with the values behind:

| Compound | pIC50 [1] | pIC50 (Carboxypeptidase B2) | pIC50 (Carboxypeptidase B) | Activity (Plasma) |
| --- | --- | --- | --- | --- |
| CC(=N)N1CCC(C(CS)C(=O)O)CC1 (stereo not given) | 4.54 | 5.28 | 5.98 |  |
| NCC(=O)N1CCC(C(CS)C(=O)O)CC1 (stereo not given) | 5.31 | 5.13 | < 4.52 |  |
| O=C(O)C(CS)C1CCNCC1 (stereo not given) | 7.22 | 7.43 | 6.71 |  |
| O=C(O)C(CS)CC1CCNCC1 (stereo not given) | 7.21 | 6.86 | 7.54 |  |
| N=C(N)Nc1cccc(C(CS)C(=O)O)c1 (racemic) [listing 2 of 2 here] |  |  |  | Dose-dependent effect |
| O=C(O)C(CS)C1CCCNC1 (stereo in doubt; 1c) | < 4.52 | 7.17 | < 4.52 |  |
| O=C(O)C(CS)C1CCCNC1 (stereo in doubt; 1e) | 5.76 | 6.35 | 4.72 |  |
| O=C(O)C(CS)CC1CCCNC1 (stereo in doubt; 3a) | 6.38 | 7.04 | 5.38 |  |
| O=C(O)C(CS)CC1CCCNC1 (stereo in doubt; 3b) | < 4.52 | 6.89 | 5.71 |  |
